# According to US10251860B2, “Compounds for bone healing” (University of Pittsburgh—Of the Commonwealth System of …, priority 2015, dated 2019):
# “Also recorded” adds a separate entry of the source.
# Assays:
# [1] = test system: luc+ bone marrow stromal cells migrating to lungs; test: Live imaging of luc+ marrow cell migration to irradiated lungs; format: in vivo, mouse; conditions: MMS350 in drinking water
# Experimental: C57BL/6NTac mice marrow chimeric luc+ mice were prepared by 9.25 Gy TBI, followed by an injection of 1×10^7 luc+ marrow cells 24 hours later. Subgroups of these chimeric mice were irradiated to 20 Gy to the pulmonary cavity. On day 75 following thoracic irradiation, 50% of the mice were placed on drinking water containing 100 mM MMS350. Mice in the non-chimeric group were injected intraperitoneally on day 100 after irradiation with 1×10^6 luc+ bone marrow stromal cells. Beginning 12 days after cell line injection (112 days after irradiation), the cell line injected mice were imaged at serial timepoints following injection of D-luciferin (Gold Biotechnology, St. Louis, Mo.) using a Xenogen IVIS 200 Imaging system and the bioluminescent signal for each mouse quantitated. As controls for thoracic irradiation, other C57BL/6NTac mice were irradiated to 20 Gy to the right hind limb and injected with luc+ bone marrow stromal cells in the same cell numbers and at the same time points used for the thoracic irradiation experiment. Animals were imaged for luc+ cell migration into irradiated hind limbs using methods identical to that used for pulmonary irradiation groups. The bioluminescence of the mice treated with MMS350 in the drinking water was compared to mice on regular drinking water using a Student T test. […]
# Brine shrimp = Brine shrimp toxicity assay; format: in vivo
# Experimental: General procedure for brine shrimp toxicity assays. Sample preparation. Stock solutions of 3 were prepared by dissolving 3 (50.0 mg) in 5.0 HPLC grade water (5.0 mL), (solution A) and 3 (2.50 g) in HPLC grade water (10.0 mL) (solution B). Stock solutions of DMSO were prepared by diluting DMSO (45 μL) with HPLC grade water (5.0 mL) (solution C) and DMSO (2.27 mL) with HPLC grade water (10.0 mL) (solution D).
# In each case, 5 replicates were performed. Each replicate was performed in a 2 dram vial marked at the 4 and 5 mL volume points. To each vial was added artificial sea water (3 mL) followed by the appropriate volume of stock solution. For set 1 (1.0 mg/mL), solution A (0.500 mL) or solution C (0.500 mL) was added. For set 2 (5.0 mg/mL), solution B (0.100 mL) or solution D (0.100 mL) was added to each vial. For set 3 (20.0 mg/mL), solution B (0.400 mL) or solution D (0.400 mL) was added to each vial. For set 4 (50.0 mg/mL), solution B (1.00 mL) or solution D (1.00 mL) was added to each vial. Controls containing HPLC grade water (0.100 mL, 0.400 mL, and 1.00 mL) were prepared in the same manner, and five replicates of each control were prepared.
# Brine shrimp eggs (San Francisco Bay Brand) were hatched in a commercial salt mixture (Instant Ocean). Constant aeration was provided using a pump and airstone, and illumination was maintained using a desk lamp. The shrimp were collected in a separate tank after 48 hours and used within 3-4 hours of collection.
# Brine shrimp were added to each vial using a plastic transfer pipet. After the shrimp were transferred, artificial sea-water was added until the volume reached the 5-mL mark. One drop of a yeast suspension prepared by suspending 11 mg yeast in sea-water (20 mL) was added to each vial. The shrimp were counted at t=24 hours. Another drop of freshly prepared yeast solution (6 mg in 10 mL sea water) was added, the vials were maintained under illumination, and shrimp were counted at t=48 hours.
compound,measurement,setting,value
"CC1(C[S+]([O-])CC2(C)COC2)COC1 [Compound 3, 3,3′-Sulfinylbis(methylene)bis(3-methyloxetane)]",pulmonary migration of luc+ bone marrow stromal cells,"[1]; 20 Gy thoracic irradiation, luc+ stromal cell line injected intraperitoneally",significant decrease in migration into the lungs of luc+ cells; also recorded: significant decrease in pulmonary migration of luc+ bone marrow stromal cells
same,migration of luc+ bone marrow cells into the lungs,"[1]; luc+ marrow chimeric mice, 18 or 20 Gy thoracic irradiation, listed as MMS350",significantly reduces migration of bone marrow cells into the lungs; also recorded: reduction of luc+ areas in the thoracic cavity
same,% Mortality after 24 h,Brine shrimp; 1 mg/mL,0%
same,% Mortality after 48 h,Brine shrimp; 1 mg/mL,0%
same,% Mortality after 24 h,Brine shrimp; 5 mg/mL,0%
same,% Mortality after 48 h,Brine shrimp; 5 mg/mL,0%
same,% Mortality after 24 h,Brine shrimp; 20 mg/mL,0-10%
same,% Mortality after 48 h,Brine shrimp; 20 mg/mL,0-10%
same,% Mortality after 24 h,Brine shrimp; 50 mg/mL,85%
same,% Mortality after 48 h,Brine shrimp; 50 mg/mL,100%
same,mortality after 48 hours,Brine shrimp; concentrations up to 20 mg/mL,< 10%
